Data: patent US11814375B2, “Heterocyclic compounds” (Hoffmann-La Roche Inc., priority 2019, dated 2023)

target: T1, MAGL (Homo sapiens, UniProt Q99685); assay: 2-AG assay: MAGL inhibitory activity by hydrolysis of 2-arachidonoylglycerol to arachidonic acid, followed by mass spectrometry; type: biochemical; details: 8 μM 2-arachidonoylglycerol, 15 min preincubation and 30 min reaction at RT, arachidonic acid/d8-arachidonic acid ratio by MS
T1 sequence (Q99685 1-303): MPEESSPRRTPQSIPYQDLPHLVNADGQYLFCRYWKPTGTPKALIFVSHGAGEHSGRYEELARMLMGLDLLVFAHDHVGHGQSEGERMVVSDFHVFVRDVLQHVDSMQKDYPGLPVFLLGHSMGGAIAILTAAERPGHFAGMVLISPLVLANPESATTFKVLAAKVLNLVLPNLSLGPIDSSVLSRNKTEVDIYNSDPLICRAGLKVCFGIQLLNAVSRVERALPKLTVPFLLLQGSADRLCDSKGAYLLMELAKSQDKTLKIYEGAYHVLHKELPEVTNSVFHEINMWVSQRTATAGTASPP
Protocol: Compounds of formula (I) were profiled for MAGL inhibitory activity by determining the enzymatic activity by following the hydrolysis of the natural substrate 2-arachidonoylglycerol (2-AG) resulting in arachidonic acid, which can be followed by mass spectrometry. This assay is hereinafter abbreviated “2-AG assay”.
The 2-AG assay was carried out in 384 well assay plates (PP, Greiner Cat #784201) in a total volume of 20 μL. Compound dilutions were made in 100% DMSO (VWR Chemicals 23500.297) in a polypropylene plate in 3-fold dilution steps to give a final concentration range in the assay from 12.5 μM to […]. 0.25 μL compound dilutions (100% DMSO) were added to 9 μL MAGL in assay buffer (50 mM TRIS (GIBCO, 15567-027), 1 mM EDTA (Fluka, 03690-100 mL), 0.01% (v/v) Tween. After shaking, the plate was incubated for 15 min at RT. To start the reaction, 10 μL 2-arachidonoylglycerol in assay buffer was added. The final concentrations in the assay was […] and 8 μM 2-arachidonoylglyerol. After shaking and 30 min incubation at RT, the reaction was quenched by the addition of 40 μL of ACN containing 4 μM of d8-arachidonic acid. The amount of arachidonic acid was traced by an online SPE system (Agilent Rapidfire) coupled to a triple quadrupole mass spectrometer (Agilent 6460). A C18 SPE cartridge (G9205A) was used in an ACN/water liquid setup. The mass spectrometer was operated in negative electrospray mode following the mass transitions 303.1→259.1 for arachidonic acid and 311.1→267.0 for d8-arachidonic acid. The activity of the compounds was calculated based on the ratio of intensities [arachidonic acid/d8-arachidonic acid].

Row | IC50 [nM] | Compound
1 | 8.5 | CC(C)(C)Cc1nnc(-c2ccc(C3CN(C(=O)N4CC[C@@H]5OCC(=O)N[C@@H]5C4)C3)cc2)o1 [Example 38, (4aR,8aS)-6-[3-[4-[5-(2,2-Dimethylpropyl)-1,3,4-oxadiazol-2-yl]phenyl]azetidine-1-carbonyl]-4,4a,5,7,8,8a-hexahydropyrido[4,3-b][1,4]oxazin-3-one]
2 | 1100 | O=C1CO[C@H]2CCN(C(=O)N3CCN(c4ccc(Oc5ccccc5)cc4)CC3)C[C@H]2N1 [Example 58, (4aR,8aS)-6-[4-(4-Phenoxyphenyl)piperazine-1-carbonyl]-4,4a,5,7,8,8a-hexahydropyrido[4,3-b][1,4]oxazin-3-one]
3 | 10.4 | O=C1CO[C@H]2CCN(C(=O)N3CCC(c4ccc(Oc5ccc(F)cc5)cc4)CC3)C[C@H]2N1 [Example 54, (4aR,8aS)-6-[4-[4-(4-Fluorophenoxy)phenyl]piperidine-1-carbonyl]-4,4a,5,7,8,8a-hexahydropyrido[4,3-b][1,4]oxazin-3-one]
4 | 0.04 | O=C1CO[C@H]2CCN(C(=O)N3CC(c4ccc(Oc5ccnc(Cl)n5)cc4)C3)C[C@H]2N1 [Example 24, (+)-(4aR,8aS)-6-[3-[4-(2-Chloropyrimidin-4-yl)oxyphenyl]azetidine-1-carbonyl]-4,4a,5,7,8,8a-hexahydropyrido[4,3-b][1,4]oxazin-3-one]
5 | 6.3 | O=C1CO[C@H]2CCN(C(=O)N3CC(c4ccc(Oc5ccncc5F)cc4)C3)C[C@H]2N1 [Example 28, (+)-(4aR,8aS)-6-[3-[4-[(3-Fluoro-4-pyridyl)oxy]phenyl]azetidine-1-carbonyl]-4,4a,5,7,8,8a-hexahydropyrido[4,3-b][1,4]oxazin-3-one]
6 | 0.01 | O=C1CO[C@H]2CCN(C(=O)N3CC(c4ccc(Oc5ccc(Cl)cc5)cc4)C3)C[C@H]2N1 [Example 19, (+)-(4aR,8aS)-6-[3-[4-(4-Chlorophenoxy)phenyl]azetidine-1-carbonyl]-4,4a,5,7,8,8a-hexahydropyrido[4,3-b][1,4]oxazin-3-one]
7 | 10.3 | O=C1CO[C@H]2CCN(C(=O)N3CC(O)(c4ccc(Oc5ccccc5)cc4)C3)C[C@H]2N1 [Example 55, (4aR,8aS)-6-[3-Hydroxy-3-(4-phenoxyphenyl)azetidine-1-carbonyl]-4,4a,5,7,8,8a-hexahydropyrido[4,3-b][1,4]oxazin-3-one]
8 | 75.4 | O=C1CO[C@H]2CCN(C(=O)N3CC(c4ccc(Oc5ncccn5)cc4)C3)C[C@H]2N1 [Example 3, (4aR,8aS)-6-[3-(4-Pyrimidin-2-yloxyphenyl)azetidine-1-carbonyl]-4,4a,5,7,8,8a-hexahydropyrido[4,3-b][1,4]oxazin-3-one]
9 | 0.9 | O=C1CO[C@H]2CCN(C(=O)N3CC(c4ccc(Oc5cncc(Cl)c5)cc4)C3)C[C@H]2N1 [Example 9, (+)-(4aR,8aS)-6-[3-[4-[(5-Chloro-3-pyridyl)oxy]phenyl]azetidine-1-carbonyl]-4,4a,5,7,8,8a-hexahydropyrido[4,3-b][1,4]oxazin-3-one]
10 | 1.4 | O=C1CO[C@H]2CCN(C(=O)N3CC(c4ccc(Oc5ccc(F)cc5)cn4)C3)C[C@H]2N1 [Example 47, (4aR,8aS)-6-[3-[5-(4-Fluorophenoxy)-2-pyridyl]azetidine-1-carbonyl]-4,4a,5,7,8,8a-hexahydropyrido[4,3-b][1,4]oxazin-3-one]
11 | 73.1 | O=C1CO[C@H]2CCN(C(=O)N3CC(c4ccc(-c5cnn(CCF)c5)cc4)C3)C[C@H]2N1 [Example 40, (4aR,8aS)-6-[3-[4-[1-(2-Fluoroethyl)pyrazol-4-yl]phenyl]azetidine-1-carbonyl]-4,4a,5,7,8,8a-hexahydropyrido[4,3-b][1,4]oxazin-3-one]
12 | 17.8 | O=C1CO[C@H]2CCN(C(=O)N3CCC(c4ccc(Oc5ccccc5)cc4)CC3)C[C@H]2N1 [Example 57, (4aR,8aS)-6-[4-(4-Phenoxyphenyl)piperidine-1-carbonyl]-4,4a,5,7,8,8a-hexahydropyrido[4,3-b][1,4]oxazin-3-one]
13 | 12.9 | O=C1CO[C@H]2CCN(C(=O)N3CC(c4ccc(Oc5cccc(Cl)c5)nc4)C3)C[C@H]2N1 [Example 53, (4aR,8aS)-6-(3-(6-(3-Chlorophenoxy)pyridin-3-yl)azetidine-1-carbonyl)hexahydro-2H-pyrido[4,3-b][1,4]oxazin-3(4H)-one]
14 | 2.4 | O=C1CO[C@H]2CCN(C(=O)N3CC(c4ccc(Oc5ccc(OC(F)(F)F)cc5)nc4)C3)C[C@H]2N1 [Example 49, (4aR,8aS)-6-(3-(6-(4-(Trifluoromethoxy)phenoxy)pyridin-3-yl)azetidine-1-carbonyl)hexahydro-2H-pyrido[4,3-b][1,4]oxazin-3(4H)-one]
15 | 23.8 | Cc1ccnc(Oc2ccc(C3CN(C(=O)N4CC[C@@H]5OCC(=O)N[C@@H]5C4)C3)cc2)n1 [Example 5, (+)-(4aR,8aS)-6-[3-[4-(4-Methylpyrimidin-2-yl)oxyphenyl]azetidine-1-carbonyl]-4,4a,5,7,8,8a-hexahydropyrido[4,3-b][1,4]oxazin-3-one]
16 | 0.02 | O=C1CO[C@H]2CCN(C(=O)N3CC(c4ccc(Oc5ccccc5Cl)cc4)C3)C[C@H]2N1 [Example 2, (4aR,8aS)-6-[3-[4-(2-Chlorophenoxy)phenyl]azetidine-1-carbonyl]-4,4a,5,7,8,8a-hexahydropyrido[4,3-b][1,4]oxazin-3-one]
17 | 0.3 | O=C1CO[C@H]2CCN(C(=O)N3CC(c4ccc(Oc5cnccc5Cl)cc4)C3)C[C@H]2N1 [Example 27, (+)-(4aR,8aS)-6-[3-[4-[(4-chloro-3-pyridyl)oxy]phenyl]azetidine-1-carbonyl]-4,4a,5,7,8,8a-hexahydropyrido[4,3-b][1,4]oxazin-3-one]
18 | 12.7 | COc1ccnc(Oc2ccc(C3CN(C(=O)N4CC[C@@H]5OCC(=O)N[C@@H]5C4)C3)cc2)n1 [Example 13, (+)-(4aR,8aS)-6-[3-[4-(4-Methoxypyrimidin-2-yl)oxyphenyl]azetidine-1-carbonyl]-4,4a,5,7,8,8a-hexahydropyrido[4,3-b][1,4]oxazin-3-one]
19 | 0.05 | O=C1CO[C@H]2CCN(C(=O)N3CC(c4ccc(Oc5ccccc5F)cc4)C3)C[C@H]2N1 [Example 18, (+)-(4aR,8aS)-6-[3-[4-(2-fluorophenoxy)phenyl]azetidine-1-carbonyl]-4,4a,5,7,8,8a-hexahydropyrido[4,3-b][1,4]oxazin-3-one]
20 | 0.03 | Cc1ccccc1Oc1ccc(C2CN(C(=O)N3CC[C@@H]4OCC(=O)N[C@@H]4C3)C2)cc1 [Example 21, (+)-(4aR,8aS)-6-[3-[4-(2-Methylphenoxy)phenyl]azetidine-1-carbonyl]-4,4a,5,7,8,8a-hexahydropyrido[4,3-b][1,4]oxazin-3-one]
21 | 1.3 | O=C1CO[C@H]2CCN(C(=O)N3CC(c4ccc(Oc5ccccc5Cl)nc4)C3)C[C@H]2N1 [Example 52, (4aR,8aS)-6-(3-(6-(2-Chlorophenoxy)pyridin-3-yl)azetidine-1-carbonyl)hexahydro-2H-pyrido[4,3-b][1,4]oxazin-3(4H)-one]
22 | 42.9 | Cc1ccnnc1Oc1ccc(C2CN(C(=O)N3CC[C@@H]4OCC(=O)N[C@@H]4C3)C2)cc1 [Example 11, (+)-(4aR,8aS)-6-[3-[4-(4-Methylpyridazin-3-yl)oxyphenyl]azetidine-1-carbonyl]-4,4a,5,7,8,8a-hexahydropyrido[4,3-b][1,4]oxazin-3-one]
23 | 13.4 | O=C1CO[C@H]2CCN(C(=O)N3CC(c4ccc(Oc5nccc(C(F)(F)F)n5)cc4)C3)C[C@H]2N1 [Example 14, (+)-(4aR,8aS)-6-[3-[4-[4-(Trifluoromethyl)pyrimidin-2-yl]oxyphenyl]azetidine-1-carbonyl]-4,4a,5,7,8,8a-hexahydropyrido[4,3-b][1,4]oxazin-3-one]
24 | 31.5 | O=C1CO[C@H]2CCN(C(=O)N3CC(c4ccc(Oc5ccc(F)cc5)nc4)C3)C[C@H]2N1 [Example 48, (4aR,8aS)-6-(3-(6-(4-Fluorophenoxy)pyridin-3-yl)azetidine-1-carbonyl)hexahydro-2H-pyrido[4,3-b][1,4]oxazin-3(4H)-one]
25 | 0.1 | O=C1CO[C@H]2CCN(C(=O)N3CC(c4ccc(Oc5ccc(F)cc5F)cc4)C3)C[C@H]2N1 [Example 17, (+)-(4aR,8aS)-6-[3-[4-(2,4-Difluorophenoxy)phenyl]azetidine-1-carbonyl]-4,4a,5,7,8,8a-hexahydropyrido[4,3-b][1,4]oxazin-3-one]
